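Compound exposure: 48 hours, 5 concentrations, 96-well plates. GI50: concentration for 50% inhibition of growth. At the TGI there is no net growth.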
How the values were obtained:
Assay in all cases: NCI anticancer screen, dose series, 48 h
[1] = tested on: 786-0 renal
[2] = tested on: A549 NSCLC
[3] = tested on: ACHN renal
[4] = tested on: BT-549 breast
[5] = tested on: CAKI-1 renal
[6] = tested on: CCRF-CEM leukemia
[7] = tested on: COLO 205 colon
[8] = tested on: DU-145 prostate
[9] = tested on: EKVX NSCLC
[10] = tested on: HCC-2998 colon
[11] = tested on: HCT-116 colon
[12] = tested on: HCT-15 colon
[13] = tested on: HL-60(TB) leukemia
[14] = tested on: HOP-62 NSCLC
[15] = tested on: HOP-92 NSCLC
[16] = tested on: HS 578T breast
[17] = tested on: HT29 colon
[18] = tested on: IGROV1 ovarian
[19] = tested on: K-562 leukemia
[20] = tested on: KM12 colon
[21] = tested on: LOX IMVI melanoma
[22] = tested on: M14 melanoma
[23] = tested on: MALME-3M melanoma
[24] = tested on: MCF7 breast
[25] = tested on: MDA-MB-231 breast
[26] = tested on: MOLT-4 leukemia
[27] = tested on: NCI-H226 lung
[28] = tested on: NCI-H23 lung
[29] = tested on: NCI-H460 lung
[30] = tested on: NCI-H522 lung
[31] = tested on: NCI/ADR-RES ovarian
[32] = tested on: OVCAR-3 ovarian
[33] = tested on: OVCAR-4 ovarian
[34] = tested on: OVCAR-5 ovarian
[35] = tested on: OVCAR-8 ovarian
[36] = tested on: PC-3 prostate
[37] = tested on: RPMI-8226 leukemia
[38] = tested on: RXF 393 renal
[39] = tested on: SF-268 CNS
[40] = tested on: SF-295 CNS
[41] = tested on: SF-539 CNS
[42] = tested on: SK-MEL-2 melanoma
[43] = tested on: SK-MEL-28 melanoma
[44] = tested on: SK-MEL-5 melanoma
[45] = tested on: SK-OV-3 ovarian
[46] = tested on: SN12C renal
[47] = tested on: SNB-19 CNS
[48] = tested on: SNB-75 CNS
[49] = tested on: SR leukemia
[50] = tested on: SW-620 colon
[51] = tested on: TK-10 renal
[52] = tested on: U251 CNS
[53] = tested on: UACC-62 melanoma
[54] = tested on: UO-31 renal
[55] = tested on: A498 renal
[56] = tested on: MDA-MB-435
[57] = tested on: T-47D breast
[58] = tested on: UACC-257 melanoma

CC(=O)O[C@H](C[C@H](C(C)C)N(C)C(=O)[C@@H](NC(=O)[C@H]1CCCCN1C)C(C)(C)C)c1nc(C(=O)N[C@@H](Cc2ccccc2)C[C@H](C)C(=O)O)cs1
GI50 [1]: < 0.0025 µM
TGI [1]: > 25 µM
GI50 [2]: < 0.0025 µM
TGI [2]: > 25 µM
GI50 [3]: < 0.0025 µM
TGI [3]: > 25 µM
GI50 [4]: 0.00304 µM
TGI [4]: 0.0645 µM
GI50 [5]: < 0.0025 µM
TGI [5]: > 25 µM
GI50 [6]: < 0.0025 µM
TGI [6]: > 25 µM
GI50 [7]: < 0.0025 µM
TGI [7]: 0.0053 µM
GI50 [8]: < 0.0025 µM
GI50 [9]: 0.00462 µM
TGI [9]: > 25 µM
GI50 [10]: < 0.0025 µM
TGI [10]: > 8.5 µM
GI50 [11]: < 0.0025 µM
TGI [11]: > 25 µM
GI50 [12]: < 0.0025 µM
TGI [12]: > 25 µM
GI50 [13]: < 0.0025 µM
TGI [13]: < 0.0025 µM
GI50 [14]: < 0.0025 µM
TGI [14]: > 25 µM
GI50 [15]: < 0.0025 µM
TGI [15]: 0.297 µM
GI50 [16]: < 0.0025 µM
TGI [16]: > 23.6 µM
GI50 [17]: < 0.0025 µM
TGI [17]: > 25 µM
GI50 [18]: 0.00294 µM
TGI [18]: > 25 µM
GI50 [19]: < 0.0025 µM
TGI [19]: > 25 µM
GI50 [20]: < 0.0025 µM
GI50 [21]: < 0.0025 µM
TGI [21]: > 25 µM
GI50 [22]: < 0.0025 µM
GI50 [23]: < 0.0025 µM
TGI [23]: > 25 µM
GI50 [24]: < 0.0025 µM
TGI [24]: > 25 µM
GI50 [25]: < 0.0025 µM
GI50 [26]: < 0.0025 µM
TGI [26]: > 25 µM
GI50 [27]: 0.0348 µM
GI50 [28]: < 0.0025 µM
TGI [28]: > 25 µM
GI50 [29]: < 0.0025 µM
TGI [29]: > 25 µM
GI50 [30]: < 0.0025 µM
TGI [30]: 0.00847 µM
GI50 [31]: 0.00524 µM
TGI [31]: > 25 µM
GI50 [32]: < 0.0025 µM
TGI [32]: 0.00448 µM
GI50 [33]: 0.00525 µM
TGI [33]: > 25 µM
GI50 [34]: < 0.0025 µM
TGI [34]: > 25 µM
GI50 [35]: < 0.0025 µM
TGI [35]: > 25 µM
GI50 [36]: < 0.0025 µM
TGI [36]: > 25 µM
GI50 [37]: < 0.0025 µM
TGI [37]: > 25 µM
GI50 [38]: < 0.0025 µM
TGI [38]: > 25 µM
GI50 [39]: 0.00432 µM
TGI [39]: > 25 µM
GI50 [40]: < 0.0025 µM
TGI [40]: > 8.94 µM
GI50 [41]: < 0.0025 µM
TGI [41]: 0.0046 µM
GI50 [42]: < 0.0025 µM
TGI [42]: > 25 µM
GI50 [43]: 1.05 µM
TGI [43]: > 25 µM
GI50 [44]: < 0.0025 µM
TGI [44]: 0.0057 µM
GI50 [45]: < 0.0025 µM
TGI [45]: > 25 µM
GI50 [46]: < 0.0025 µM
TGI [46]: > 25 µM
GI50 [47]: < 0.0025 µM
TGI [47]: > 25 µM
GI50 [48]: < 0.0025 µM
TGI [48]: > 25 µM
GI50 [49]: < 0.0025 µM
TGI [49]: > 25 µM
GI50 [50]: < 0.0025 µM
TGI [50]: > 25 µM
GI50 [51]: 0.00962 µM
TGI [51]: > 25 µM
GI50 [52]: < 0.0025 µM
TGI [52]: > 25 µM
GI50 [53]: < 0.0025 µM
TGI [53]: > 25 µM
GI50 [54]: 0.0192 µM
TGI [54]: > 25 µM

CS(=O)(=O)Nc1cc(-c2ccc3ncnc(Nc4cccc(Cl)c4F)c3c2)cnc1Cl
GI50 [1]: 3.63 µM
TGI [1]: 38.5 µM
GI50 [55]: 1.68 µM
TGI [55]: 4.1 µM
GI50 [2]: 5.3 µM
TGI [2]: 24.1 µM
GI50 [3]: 4.09 µM
TGI [3]: > 100 µM
GI50 [4]: 1.84 µM
TGI [4]: 7.65 µM
GI50 [5]: 1.82 µM
TGI [5]: 12.6 µM
GI50 [6]: 2.59 µM
TGI [6]: > 100 µM
GI50 [7]: 4.23 µM
TGI [7]: 27.8 µM
GI50 [8]: 3.69 µM
TGI [8]: 29 µM
GI50 [9]: 1.44 µM
TGI [9]: 6.27 µM
GI50 [10]: 1.66 µM
TGI [10]: 5.01 µM
GI50 [11]: 4.02 µM
TGI [11]: 19.9 µM
GI50 [12]: 2.78 µM
TGI [12]: 14.5 µM
GI50 [13]: 3.19 µM
TGI [13]: 40.2 µM
GI50 [14]: 2.48 µM
TGI [14]: 60.7 µM
GI50 [15]: 0.672 µM
TGI [15]: 5.31 µM
GI50 [16]: 0.274 µM
TGI [16]: 2.77 µM
GI50 [17]: 3.3 µM
TGI [17]: 38.4 µM
GI50 [18]: 1.02 µM
TGI [18]: 4.34 µM
GI50 [19]: 4.2 µM
TGI [19]: > 100 µM
GI50 [20]: 4.32 µM
TGI [20]: 16.5 µM
GI50 [21]: 1.58 µM
TGI [21]: 5.45 µM
GI50 [22]: 3.17 µM
TGI [22]: 17 µM
GI50 [23]: 1.83 µM
TGI [23]: 7.66 µM
GI50 [24]: 0.624 µM
TGI [24]: 20.1 µM
GI50 [25]: 2.1 µM
TGI [25]: 8.06 µM
GI50 [56]: 4.73 µM
TGI [56]: 21.9 µM
GI50 [26]: 2.31 µM
TGI [26]: 8.46 µM
GI50 [27]: 2.57 µM
TGI [27]: 18.2 µM
GI50 [28]: 2.33 µM
TGI [28]: 10.1 µM
GI50 [29]: 4.09 µM
TGI [29]: > 100 µM
GI50 [30]: 3 µM
TGI [30]: 17 µM
GI50 [31]: 7.02 µM
TGI [31]: 31.8 µM
GI50 [32]: 1.84 µM
TGI [32]: 7.52 µM
GI50 [33]: 5.82 µM
TGI [33]: > 100 µM
GI50 [34]: 2.17 µM
TGI [34]: 19.1 µM
GI50 [35]: 4.03 µM
TGI [35]: 58.5 µM
GI50 [36]: 2.27 µM
TGI [36]: 11.6 µM
GI50 [37]: 2.21 µM
TGI [37]: 6.11 µM
GI50 [38]: 1.67 µM
TGI [38]: 4.93 µM
GI50 [39]: 1.41 µM
TGI [39]: 19.3 µM
GI50 [40]: 2.47 µM
TGI [40]: 12.5 µM
GI50 [41]: 2.26 µM
TGI [41]: 7.98 µM
GI50 [42]: 2.13 µM
TGI [42]: 6.79 µM
GI50 [43]: 1.59 µM
TGI [43]: 9.27 µM
GI50 [44]: 1.66 µM
TGI [44]: 3.29 µM
GI50 [45]: 1.99 µM
TGI [45]: 8.81 µM
GI50 [46]: 3.89 µM
TGI [46]: 41.2 µM
GI50 [47]: 2.83 µM
TGI [47]: 16.1 µM
GI50 [48]: 0.463 µM
TGI [48]: 7.43 µM
GI50 [50]: 3.31 µM
TGI [50]: 37.7 µM
GI50 [57]: 0.382 µM
TGI [57]: 10.6 µM
GI50 [51]: 1.77 µM
TGI [51]: 8.73 µM
GI50 [52]: 2.45 µM
TGI [52]: 14.9 µM
GI50 [58]: 2.62 µM
TGI [58]: 18 µM
GI50 [53]: 1.76 µM
TGI [53]: 11.7 µM
GI50 [54]: 1.24 µM
TGI [54]: 4.3 µM

Source: PubChem BioAssay (NCI)
